Measured values from patent publication US20220033490A1 (priority 2018, published 2022).

Biological target: T1, α6*nAChR (Homo sapiens, UniProt Q15825)
T1 construct: endogenous in cells; host or cells: human inducible Tregs (from naïve CD4+ T cells of PBMCs) co-cultured with autologous CD8+ T cells
Assay type: cell-based

T1 sequence (Q15825 26-494): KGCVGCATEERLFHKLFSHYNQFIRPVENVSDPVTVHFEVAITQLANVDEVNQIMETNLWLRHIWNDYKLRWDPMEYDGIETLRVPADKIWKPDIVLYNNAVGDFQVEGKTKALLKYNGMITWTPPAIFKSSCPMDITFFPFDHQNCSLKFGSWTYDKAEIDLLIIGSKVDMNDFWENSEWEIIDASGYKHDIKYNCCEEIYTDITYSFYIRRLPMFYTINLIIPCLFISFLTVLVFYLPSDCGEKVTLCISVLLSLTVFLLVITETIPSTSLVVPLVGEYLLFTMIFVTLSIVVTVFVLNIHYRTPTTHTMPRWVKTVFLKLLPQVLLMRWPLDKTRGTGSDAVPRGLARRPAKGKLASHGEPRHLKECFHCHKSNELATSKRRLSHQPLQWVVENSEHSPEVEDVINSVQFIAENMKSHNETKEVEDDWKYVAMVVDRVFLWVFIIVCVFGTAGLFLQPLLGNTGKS

CN1CCCC1c1cccnc1 (centres unmarked) [nicotine]
IFNγ+CD8+ T-cells in co-culture: trend of decreasing IFNγ+CD8+ T-cells

alpha-conotoxin PIA [[…]-conotoxin PIA]
IFNγ+CD8+ T cells in co-culture: trend of increasing IFNγ+CD8+ T cells
